# Measured values taken from patent publication US6890950B2, “Lapachone delivery systems, compositions and uses related thereto” (priority 2002, dated 2005).
# “And” between values parts separate entries of the source, which are not always exact repeats. Identical values can stand only once.
# Tests used:
# [1] = system: NQO1− LNCaP cells; test: radiosensitization, clonogenic survival; format: cell-based, human
# Description: (§1) FIG. 15. […] Changes in colony forming ability. In A, pcDNA3-vector alone cells were tested. In B, same as A, except that NQO1^+ LNCaP cells were used.
# (§2) To answer the question of whether NQO1 levels must be induced for β-lap radiosensitization, we examined NQO1^+ LNCaP NQC12 v. NQO1^− LNCaP-pcDNA3 vector alone cells for differences in radiosensitization by various concentrations of β-lap, given 4 h post-IR (FIG. 15).
# [2] = system: NQO1+ LNCaP NQCl2 cells; test: radiosensitization, clonogenic survival; format: cell-based, human; conditions: β-lap given 4 h post-IR
# Description: as §1, §2
# [3] = system: DU-145 cells; test: survival / lethality of CaP cells; format: cell-based, human
# [4] = system: human cancer cells; conditions: variety of human cancer cells; read-out: antitumor activity (IC50); cited from earlier work
# [5] = system: LNCaP; test: TUNEL apoptosis assay; format: cell-based, human; conditions: for Apoptosis (%) After Drug Treatment: 10 μM, 4h
# [6] = system: PC-3 cells; test: survival / lethality of CaP cells; format: cell-based, human; conditions: PC-3, absence of IR
# [7] = system: NQO1-containing LNCaP clones; test: colony forming ability assays; format: cell-based, human; conditions: 4-h pulses
# Description: FIG. 14. […] Colony forming ability assays (CFAs) were performed three times, each in triplicate.
# LNCaP cells were transfected with either pcDNA3 empty vector or pcDNA3 containing full-length NQO1 cDNA.
# [8] = solubility of β-lap in PBS (orbital shaker, UV-Vis); format: physicochemical; conditions: 37° C.
# Description: Fabrication of β-lap-loaded polymer millirods. The extremely low solubility of β-lap in water has greatly limited the clinical use of this compound. The development of drug-impregnated millirods, wherein β-lap release kinetics may be accurately permits the delivery of an efficacious form of therapy against human prostate tumors that commonly over-express the NQO1 oxidoreductase. The extinction coefficient for β-lap in water was determined to be 2.6×10^4 cm^−1M^−1 at 257 nm wavelength by UV-V is spectrophotometry. Solubility experiments were performed by immersing β-lap in PBS over a period of six days in an orbital shaker at 37° C. At the start of the experiment the drug suspension was sonicated for 20 seconds to facilitate the fast reach of solubility equilibrium. Samples were taken and filtered by 0.2 μm Millipore filters via syringe to remove non-dissolved drug particles and diluted to accommodate the UV-V is sensitive range before collecting absorbance data. […] This concentration is too low for i.v. administration in clinical applications. […] Polymer millirods were fabricated using a compression heat molding procedure as previously developed in our lab. (Halpert, B., Sheehan, E. and Schmalhorst, W. (1998) Cancer 82, 737-742.) Briefly, β-lap particles were mixed with polymer microspheres (4 μm) and various concentrations of glucose. […]
# [9] = system: C57Blk/6 mice; test: animal toxicity study (morbidity and mortality); format: in vivo, mouse; conditions: HPβ-CD inclusion complex vs Cremophor vehicle, from LD50
# Description: C57Blk/6 female mice (3-4 week-old, 18-20 g) (Jackson Labs, Me.) were used to study the morbidity and mortality of mice treated with HPβ-CD.β-lap inclusion complex. Four mice per group were used for each dose, which varied from 20 to 100 mg/kg. […] Mice were injected (i.p.) every Monday, Wednesday and Friday for three weeks for a total of 10 injections. Control animals (4 mice/group) were injected with 5000 mg/kg of HPβ-CD alone to evaluate its toxicity. This HPβ-CD dose is approximately ten times of the HPβ-CD amount introduced at the highest dose of β-lap (100 mg/kg) via the HPβ-CD.β-lap inclusion complex. The higher dose of HPβ-CD was used to ensure the lack of toxicity of this compound. Weight and lethality were measured on a daily basis following initial drug administration. All animals were maintained in a facility accredited by the Association for Assessment and Accreditation of Laboratory Animal Care according to the “Principles of Laboratory Animal Care” of the National Institutes of Health.
# [10] = system: L1C2 cells; format: cell-based; conditions: 4 μM, 4 h
# Description: (§3) PARP cleavage to a 60 kDa fragment and specific p53 proteolysis are diagnostic for β-lap-induced μ-calpain-mediated apoptosis.
# [11] = system: Lewis lung carcinoma (LLC); format: cell-based; conditions: 4 μM, 4 h
# Description: as §3
# [12] = phase solubility studies of β-lap with cyclodextrins; format: physicochemical
# Description: Solubility studies were performed by adding excess amount of β-lap to a series of PBS buffer that contain different concentrations of each CD molecule ranging from zero to its solubility limit (see Table 1 for the solubility limit of each CD molecule). A schematic diagram of the intermolecular interactions and their effect on solubility is provided as FIG. 1. The suspensions were stirred at 25° C. until dissolution equilibrium was reached. […] Phase solubility diagram for each CD was obtained by plotting the β-lap solubility at dissolution equilibrium as a function of the CD concentration.
# [13] = system: DU-145; test: TUNEL apoptosis assay; format: cell-based, human; conditions: 10 μM, 4h, TUNEL 48h
# [14] = system: LNCaP cells; test: survival / lethality of CaP cells; format: cell-based, human; conditions: LNCaP (lack NQO1)
# [15] = system: normal fresh or proliferating human PBMC; conditions: cited from earlier work
smiles,measurement,setting,value
"CC1(C)CCC2=C(O1)c1ccccc1C(=O)C2=O [β-lap, β-Lapachone]",radiosensitization,[1],not sensitized
same,radiosensitization,[2],radiosensitized
same,lethality,"[3]; DU-145, 4 μM β-lap",> 95%
same,survival,"[3]; DU-145, 4 μM β-lap with 50 μM dicoumarol",> 95%
same,sensitivity to β-lap,"[3]; DU-145, absence of IR",sensitive
same,IC50,[4],1 to 10 µM
same,Apoptosis (%) After Drug Treatment,"[5]; LNCaP + DC (50 μM dicoumarol), TUNEL 48h",28%
same,Apoptosis (%) After Drug Treatment,"[5]; LNCaP + DVED, TUNEL 48h",24%
same,Apoptosis (%) After Drug Treatment,"[5]; LNCaP, TUNEL 48h post-treatment",28%
same,less apoptosis than DU-145 or PC-3 cells,[5]; β-lap-treated LNCaP,3 fold
same,sensitivity to β-lap,[6],sensitive
same,sensitivity compared to NQO1-deficient LN-pcDNA3 vector alone cells,[7],significantly more sensitive
same,solubility of β-lap in PBS buffer,[8],2.6×10^−4 M and 0.05 mg/cc
same,greater bioavailability in vivo compared to previous studies,[9],~3 fold
same,sensitivity to β-lap,[10],extremely sensitive
same,sensitivity to β-lap,[11],extremely sensitive
same,increase of β-lap solubility in HPβ-CD over that in β-CD vehicle,[12],24 fold
same,maximal solubility of β-lap in HPβ-CD solution,"[12]; HPβ-CD solution, PBS, 25° C.",66.0 mM and 16.0 mg/ml
same,water solubility of β-lap,[12]; water,0.16 mM and 0.04 mg/ml
same,maximal solubility of β-lap in β-CD solution,"[12]; β-CD solution, PBS, 25° C.",2.8 mM and 0.68 mg/ml
same,Apoptosis (%) After Drug Treatment,[13]; DU-145 + DC (50 μM dicoumarol),0.12%
same,Apoptosis (%) After Drug Treatment,[13]; DU-145 + DVED,76%
same,Apoptosis (%) After Drug Treatment,[13]; DU-145,71%
same,sensitivity to β-lap,[14],resistant
same,cytotoxic effects,[15],No cytotoxic effects
